Assays:
human lungs = assay: Xenogeneic cross-circulation support of human lungs with porcine host; conditions: added to the immunosuppressive therapy, human lungs on xenogeneic cross-circulation
Description: Preliminary Results: We support human lungs utilizing EVLP and a xenogeneic cross-circulation platform. […] With the addition of cobra venom factor to the immunosuppressive therapy, the risk of acute rejection was mitigated.

[1] = system: tight junctions (TJs) of the airway epithelium; conditions: rat trachea lumen, 10 mM EDTA for 30 min, vs native
Description: Quantification of airway epithelium integrity via bioimpedance measurement: To investigate the biophysical integrity of the airway epithelium nondestructively (FIG. 16), we created a platform that allowed quantification of the bioelectrical impedance (bioimpedance) of the airway tissue (FIG. 16A-B). This platform utilizes four electrode probes to measure the electrical properties of the tissue (FIG. 16C). During measurements, alternating electrical current (AC) at various frequencies (20 Hz-135 kHz) and 100 μA of magnitude were injected into the tissue using two current carrying electrodes (CC1 and CC2), while two voltage pick-up electrodes (PU1 and PU2) measured the potential distribution (FIG. 16C). The data were analyzed using the Cole model that describes the biological tissue as a combination of a resistor (R) and a constant phase element (CPE) (FIG. 16D, i).

Row | Molecule | risk of acute rejection (human lungs) | bioimpedance of treated airway tissue [1]
1 | cobra venom factor | mitigated | –
2 | O=C(O)CN(CCN(CC(=O)O)CC(=O)O)CC(=O)O [EDTA, ethylenediaminetetraacetic acid] | – | reduced impedance

Source: patent US20260035643A1, “PHYSIOLOGIC AIRWAY MUCOSA AND PARENCHYMA BIOREACTOR AND EX VIVO WHOLE LUNG MODEL OF CYSTIC FIBROSIS FOR DISEASE MODELING AND THERAPEUTIC SCREENING” (The Trustees of Columbia University in the City of New York, priority 2023, published 2026)
